# From patent US10512667B2, “Compositions and methods for treating conditions related to adrenocortical activity and/or excessive steroid production” (The Regents of the University of Michigan, priority 2017, dated 2019)
# “Also recorded” adds a separate entry of the source.
# Tests used:
# adrenal cortex = conditions: in vivo; cited from earlier work
# H295R cells [1] = experiment: Cell morphology by phase contrast microscopy; format: cell-based; conditions: 30 h, phase contrast, hydrochloride
# Experimental: FIG. 4E: […] The cells were cultured with DMSO vehicle (upper images) or with 40 μM ATR-101 (lower images) alone (left images), or in combination with 1.5 mM MβCD (middle images), or in combination with 40 μM cholesterol (right images). Cell morphology was visualized by phase contrast microscopy using a 10× objective. The images are representative of 5 fields under each set of culture conditions. The scale bars denote 100 μm.
# [2] = test system: guinea pig adrenal glands; conditions: cited from earlier work
# MDR1 = target: T1, MDR1 (Homo sapiens, UniProt P08183); experiment: Doxorubicin accumulation / clearance in H295R cells; format: cell-based; conditions: 25 μM doxorubicin, 2 h
# T1 construct: measured the accumulation of doxorubicin in H295R cells; endogenous in cells; host or cells: H295R adrenocortical carcinoma cells
# Experimental: The medium was removed and immediately replaced with 100 μl of fresh media and intracellular doxorubicin fluorescence was visualized by fluorescence microscopy using a 20× objective.
# cholesterol-rich tissues = conditions: cynomologous monkeys; cited from earlier work
# H295R cells [3] = experiment: Cellular ATP level (CellTiter-Glo);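 note: ATP quantified by luminescence after lysing the cells in CellTiter-Glo reagent, with compound exposure at 37 °C under 5% CO2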
# Experimental: The ATP levels of cells were measured by lysis in CellTiter-Glo reagent (Promega), and measurement of the luminescence.
# After 48 h, 20-80 μl of medium was removed from each well and replaced with 20 μl of each compound diluted to 6× of the final concentration in the culture medium to produce a final volume of 120 μl. The cells were incubated at 37 C in 5% CO2 atmosphere for a time ranging from 15 min to 24 h. The medium was removed and immediately replaced with 50 μl of CellTiter-Glo luminescence cell viability assay reagent (Promega). The cells were lysed by agitation at room temperature for 20 min in the dark. The luminescence was measured using a SpectraMax M5 microplate reader (Molecular Devices) with a 0.5 s acquisition time. The luminescence (RLU) values for control cells ranged from 5000 to 20000 RLU in all experiments, and were scaled by a factor of 0.001 to plot all graphs.
# H295R cells [4] = experiment: Cortisol secretion (indirect ELISA); format: cell-based
# CHOP = experiment: Transcript measurement by qPCR in H295R cells; format: cell-based; conditions: 4 h
# Experimental: (§1) mRNA was isolated (Qiagen), and was reverse transcribed using the Transcriptor First Strand cDNA synthesis kit (Roche). The relative amounts of cDNAs corresponding to the indicated transcripts were quantified using qPCR assays with specific primers (Table 2).
# (§2) H295R cells were seeded in 6-well tissue culture plates (Corning #3506) at a density of 5 X105 per well. After 48 h, the compound(s) indicated were added, and the cells were cultured for the indicated time. The cells were harvested in 1.35 ml culture medium with trypsin. The cells were collected by centrifugation and lysed in 350 μl of RLT buffer (Qiagen) with β-mercaptoethanol. mRNA extraction and DNase treatment were performed according to the manufacturer's protocol (Qiagen). All RNA samples had 260/280 ratios greater than 1.5. The same amount of RNA ranging from 0.1 to 0.5 μg was used for reverse transcription using the Roche Transcriptor First Strand cDNA synthesis kit (Roche #04897030001) using the manufacturer's protocol. SYBR Green I-based real-time qPCR assays were performed using a Roche LightCycler480 instrument. The levels of transcripts in different samples were normalized by the levels of RPL9 transcripts.
# HSD3B2 = experiment: Transcript measurement by qPCR in H295R cells; format: cell-based; conditions: H295R cells cultured with ATR-101
# Experimental: as §1, §2
# IDOL = experiment: Transcript measurement by qPCR in H295R cells; format: cell-based; conditions: within an hour after addition
# Experimental: as §1, §2
# H295R cells [5] = experiment: Cholesterol crystallization and extracellular cholesterol associated with cells; format: cell-based
# Experimental: To quantify cholesterol crystallization, experiments were conducted that measured the total extracellular cholesterol that was associated with the cells. After culturing cells with the indicated compounds, the culture medium was removed. Medium lacking cholesterol was added to the cells, and the extracellular cholesterol that was released into the wash medium was collected after 30 seconds. To establish if the cholesterol that was released from the cells was exported by ABCA1, the wash step was performed in parallel using media with and without 50 μM glibenclamide, which inhibits ABCA1 activity. The total amount of cell-associated cholesterol that was released into the wash medium was measured using a fluorometric enzyme-linked assay (Cayman Chemical). Cholesterol esters were hydrolyzed using cholesterol esterase. Cholesterol was oxidized by cholesterol oxidase, producing hydrogen peroxide. The hydrogen peroxide was reacted with 10-acetyl-3,7-dihydroxyphenoxazine (ADHP) in the presence of horseradish peroxidase to produce resorufin. Resorufin fluorescence was measured using 555 nm exitation and 590 nm emission wavelengths in a SpectraMax M5 microplate reader (Molecular Devices).
# The medium was removed and replaced with 50 μl serum-free medium supplemented with 5 μg/mL apo-AI (without or with 50 μM glyburide to detect ABCA1 transporter-dependent efflux) for either 30 sec or 1 h at 37 C in 5% CO2 atmosphere. After the indicated time, the supernatant, was transferred to a new 96-well plate and a fluorometric-base cholesterol detection assay cocktail was added.
compound,measurement,setting,value
"CC(C)c1cccc(C(C)C)c1NC(=O)NCC1(c2ccc(N(C)C)cc2)CCCC1.Cl [ATR-101, N-(2,6-bis(1-methylethyl)phenyl)-N′-((1-(4-(dimethylamino)phenyl)cyclopentyl)methyl)urea hydrochloride]",adrenalytic activity,adrenal cortex,has adrenalytic activity
same,"cell morphology, compound alone",H295R cells [1],"small, rounded and weakly attached to the plate"
same,increase of the cholesterol level of adrenal glands,[2]; after 24 hours,3 fold
same,onset of rise of the cholesterol level of adrenal glands,[2]; after ATR-101 administration,rises within an hour
same,doxorubicin accumulation,MDR1; 20 μM compound,increased doxorubicin accumulation
same,doxorubicin accumulation in the presence of MβCD,"MDR1; 100 μM ATR-101, 4 mM MβCD",caused doxorubicin accumulation in the presence of MβCD
same,tissue distribution of toxicity,cholesterol-rich tissues,"limited to cholesterol-rich tissues, including the adrenal cortex, the corpus luteum, and sebaceous glands"
same,concentration required for ATP depletion and caspase activation relative to the concentration that inhibited cholesterol esterification,"H295R cells [3]; ACC-derived cells, 4 h",more than two orders of magnitude higher
same,time after ATR-101 addition at which ATP depletion was detected,"H295R cells [3]; H295R cells, 100 μM ATR-101",30 min
same,fold lower concentration that reduced the ATP level in combination than required separately,"H295R cells [3]; H295R cells, ATR-101 and rhodamine-123 in combination, 4 h",10 fold
same,"ATP level, compound alone","H295R cells [3]; H295R cells, serum-containing medium, 4 h",reduced the ATP level
same,"ATP level, compound alone","H295R cells [3]; H295R cells, serum-containing medium, 24 h",reduced the ATP levels
same,"ATP level, compound alone","H295R cells [3]; H295R cells, serum-free medium, 4 h",caused ATP depletion
same,basal and forskolin-stimulated cortisol secretion,"H295R cells [4]; 100 μM ATR-101, with or without 100 μM forskolin",blocked both basal and forskolin-stimulated cortisol secretion
same,"cortisol secretion, compound alone","H295R cells [4]; cortisol in medium, 4 h or time course, hydrochloride",inhibited cortisol secretion
same,CHOP transcript level,CHOP,activated
same,HSD3B2 transcript level,HSD3B2,reduced
same,IDOL transcript level,IDOL,reduced
same,"cholesterol crystallization at the plasma membrane, compound alone","H295R cells [5]; 40 μM ATR-101, 24 h, hydrochloride",associated with crystals that emanated from the cell membrane; also recorded: cholesterol crystallization at the plasma membrane
same,total extracellular cholesterol associated with cells,"H295R cells [5]; 4 h, 100 μM ATR-101 or 40 μM cholesterol",increased the total extracellular cholesterol
